The source of these data is patent US5747503A, “Selective inhibitors of biogenic amine transporters” (priority 1996, dated 1998).

Entries after “also recorded” stand apart in the source; their conditions may differ. Read-outs that look alike come from different tables or passages of the source.

Test [1] relates to [^3 H]5-HT uptake. The experiment in a line: Synaptosomal [^3 H]5-HT uptake inhibition. The class given is biochemical, rat. The settings on record: for IC50: Table 2, nM ± SD, whole rat brain minus cerebellum synaptosomes. The method, then:
Synaptosomal uptake assays were carried out as described (Rothman et al. (1993), supra). Briefly, synaptosomes were prepared by homogenization of rat striatum (for [^3 H]DA reuptake) or whole rat brain minus cerebellum (for [^3 H]5-HT reuptake) in ice-cold 10% sucrose, using a Potter-Elvehjem homogenizer. After a 1000×g centrifugation for 10 min at 4° C., the supernatants were retained on ice. The uptake assays were initiated by the addition of 100 μl of synaptosomes to 12×75 mm polystyrene test tubes, which were prefilled with 750 μl of [^3 H]ligand (2 nM [^3 H]5-HT or 5 nM [^3 H]DA) in a Krebs-phosphate buffer (pH 7.4), which contained ascorbic acid (1 mg/ml) and pargyline (50 μM) (buffer), 100 μl of test drugs made up in buffer containing 1 mg/ml bovine serum albumin, and 50 μl of buffer. The [^3 H]5-HT reuptake experiments were conducted in the presence of 100 nM nomifensine and […] GBR12935 in order to block any possible reuptake into NE and DA nerve terminals. […] The nonspecific uptake of each [^3 H]ligand was measured by incubations in the presence of 1 μM GBR12909 ([^3 H]DA) and 10 μM fluoxetine ([^3 H]5-HT). The incubations were terminated after a 15 min ([^3 H]DA) or 30 min ([^3 H]5-HT) incubation at 25° C. by adding 4 ml of wash buffer (10 mM TRIS-HCl, pH 7.4 containing 0.9% NaCl at 25° C.), followed by rapid filtration over Whatman GF/B filters and one additional wash cycle. […] The Krebs-phosphate buffer contained 154.5 mM NaCl, 2.9 mM KCl, 1.1 mM CaCl2, 0.83 mM MgCl2 and 5 mM glucose. The tritium retained on the filters was counted, in a Taurus beta counter, after an overnight extraction into ICN Cytoscint cocktail.
(§1) Inhibition curves were fit to the two parameter logistic equation for the best-fit estimates of the IC50 using nonlinear least squares curve fitting methods as previously described (Rothman et al. (1993), supra); Jones, S. M. and Rogawski, M. A. Mol. Neuropharmacol. 2: 303-310 (1992)).
(§2) Synaptosomal uptake and ligand binding assays were conducted as described
above. Preliminary experiments were conducted to determine the doserange
Each [^3 H] ligand was displaced
by 10 concentrations of test drug. The data of two experiments were
(§3) pooled, and fit to the two parameter logistic equation for the bestfit
estimates of the IC50 reported above.

Test [2] deals with T1, DA transporter (Rattus norvegicus, UniProt P23977).
T1 construct: Striata were dissected using glass manipulators; from tissue; host or cells: striatum of male Sprague-Dawley rats, membranes
The experiment in a line: [^3 H]CFT binding to DA transporter. The method, then:
For [^3 H]J2B-carbomethoxy-3B-(4-fluorophenyl)-tropane (CFT, WIN35,428) binding assays, male Sprague-Dawley rats (200 to 300 gm) were anesthetized with C02 gas, and decapitated. Striata were dissected using glass manipulators, placed in small plastic containers, and then allowed to freeze by placing the container in dry ice.
Striata collected in this way were stored at […]. On the day of the assay, each striatum was placed in ice-cold binding buffer (BB: 55.2 mM sodium phosphate buffer, pH 7.4, 5 ml per caudate), and homogenized while still frozen with a Polytron. The homogenate was centrifuged for 10 min at 30,000×g, and the pellet was resuspended in an equal volume of BB. The homogenate was recentrifuged, and the pellet was resuspended in an equal volume of BB. An aliquot was saved for determination of protein (0.5 ml), and the remaining homogenate was brought up to a final volume of 22 ml/striatum using ice-cold BB. […] Aliquots of membranes were then used in the radioligand binding assays.
The [^3 H]nisoxetine assay for the norepinephrine transporter (NE) was carried out as described (Rothman, et al. (1993), supra; Tejani-Butt, S. M., et al. Eur. J. Pharmacol. 191:239-243 (1990)). DA transporters were labeled with [^3 H)CFT with minor modifications of published protocols (Madras, B. K., et al. Mol. Pharmacol. 36: 518-524 (1989)). Briefly, 12×75 mm polystyrene test tubes were prefilled with 100 μl of drug, 100 μl of radiolabeled (1 nM final concentration), 50 μl of buffer. Drugs were dissolved in BB containing 1 mg/ml bovine serum albumin (BB/BSA). Radioligands were made to a final concentration in a protease inhibitor cocktail containing 1 mg/ml BSA {BB containing chymostatin (25 μg/ml), leupeptin (25 μg/ml), EDTA (100 μM), and EGTA (100 μM)}. The assay was initiated by the addition of 750 μl of membranes, prepared as described above. Brandel cell harvesters were used to filter the samples over Whatman GF/B filters, which were presoaked in wash buffer (ice-cold 10 mM TRIS-HCL, pH 7.4 containing 150 mM NaCl) containing 2% polyethylenimine. In this procedure, samples were filtered and then washed with two 4 ml aliquots of ice-cold wash buffer. Nonspecific binding was defined using 10 μM (final concentration) GBR12909. All subsequent steps were identical to those described above.
as §1, §2
Preliminary experiments were conducted to determine the doserange
The data of two experiments were
as §3

Where [3] appears, read: Table 2, nM ± SD, rat striatum, read-out: [^3 H]CFT Binding IC50.

T1 sequence (P23977 whole entry): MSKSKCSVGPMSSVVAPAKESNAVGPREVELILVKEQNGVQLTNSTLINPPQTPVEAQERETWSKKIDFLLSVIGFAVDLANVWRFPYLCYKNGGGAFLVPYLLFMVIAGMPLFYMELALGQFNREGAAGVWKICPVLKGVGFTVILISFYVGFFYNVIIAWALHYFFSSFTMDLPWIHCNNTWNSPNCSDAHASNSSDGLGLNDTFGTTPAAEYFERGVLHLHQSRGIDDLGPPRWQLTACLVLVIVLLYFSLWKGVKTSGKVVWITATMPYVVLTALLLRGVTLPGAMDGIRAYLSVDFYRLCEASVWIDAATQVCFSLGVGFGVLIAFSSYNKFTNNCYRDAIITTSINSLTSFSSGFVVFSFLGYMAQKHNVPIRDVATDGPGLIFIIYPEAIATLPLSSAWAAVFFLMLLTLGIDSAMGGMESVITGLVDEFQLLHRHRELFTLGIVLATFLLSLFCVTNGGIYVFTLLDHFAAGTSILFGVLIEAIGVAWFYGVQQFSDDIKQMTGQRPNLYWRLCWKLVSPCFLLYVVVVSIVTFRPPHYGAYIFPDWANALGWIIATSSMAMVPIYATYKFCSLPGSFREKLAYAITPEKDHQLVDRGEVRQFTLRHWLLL

Consider `CN1[C@H](Cc2ccccc2)C[C@H]2Cc3ccccc3[C@H]21` (relative stereo) [RTI-4793-14, (2RS, 3aSR, 8aRS)-1,2,3a,8,8a-Hexahydro-2-benzyl-1-methyl-indeno[1,2-b]pyrrole], for which the “[^3 H]5-HT uptake inhibition in words” value in test [1] was “moderate potency”. Further, the IC50 (usually the concentration needed to halve the response being measured) came to 1020 ± 72 nM in test [1] and 850 ± 101 nM in test [2] (setting [3]). Also, in test [2], the “[^3 H]CFT binding inhibition in words” value was “moderate potency”.

With `C[C@]12N[C@H](Cc3ccccc31)c1ccccc12` [(+)-MK801], in test [1], the “[^3 H]5-HT uptake inhibition in words” value is “negligible affinity” and the IC50 was over 4700 nM. Further, the “[^3 H]CFT binding inhibition in words” value in test [2] is reported as “negligible affinity”. Further, in test [2] (setting [3]), the IC50 is over 15000 nM.

Regarding `CNC1CC(c2ccc(Cl)c(Cl)c2)c2ccccc21` (centres unmarked) [Indatraline], in test [1], the “[^3 H]5-HT uptake inhibition in words” value was “potently inhibited; also recorded: potent inhibitor” and the half-inhibitory concentration (IC50) was found to be 4.49 ± 0.21 nM. For the same compound, in test [2], the “[^3 H]CFT binding inhibition in words” value was “potently inhibited; also recorded: potent inhibitor”.

Turning to `c1ccc(C2(N3CCCCC3)CCCCC2)cc1` [PCP, phencyclidine], the 50% inhibitory concentration (IC50) in test [1] is 1420 nM; in test [2], over 1500 nM. Moreover, the “[^3 H]CFT binding inhibition in words” value in test [2] is on record as “lower affinity”.
